From patent US9968602B2, “Modulation of cell fates and activities by phthalazinediones” (Bach Pharma, Inc., priority 2002, dated 2018)

How the values were obtained:
MOMU-LV-Ts1 virus = assay: Movement disorder with paralysis induced by MOMU-LV-Ts1 virus in mice; format: in vivo; conditions: daily intraperitoneal injections of 200 μg
Description: In mice infected at 2 days of age with the Ts1 virus, hind limb paralysis occurs with severe wasting, especially of immune organs. In humans infected with HIV, severe immune deficiency with sensory and motor neuropathy also results. In these wasting syndromes with disordered life and death pathways in various cells, some therapeutic attempts with thiol redox modulators other than amino phthalazinediones have been partially successful (Lynn and Wong, NeuroImmunomodulation 4: 277-284, 1997; Yan et al., FASEB J. 15: 1132-1138, 2001). In these studies, phthalazinediones plus thiol redox modulators appear to be sufficient to maintain survival and an adequate intracellular thiol redox potential in brain and in thymus.
Since maintaining this excessive and imbalanced 4 Hz oscillation requires increased […] expenditures, agents such as amino phthalazinediones, which can modulate thiol redox status, downregulate mitochondrial energy production, and gain access to the overactivated STN neurons, can potentially suppress the 4 Hz overactivity and thereby suppress and modulate the downstream network activities responsible for the symptoms. […] Whether this is due to suppression of oscillatory activity in neurons, suppression of virus-induced astrocytic inflammatory responses, or both is under investigation. […]

[1] = test system: mitochondrial transmembrane pores; conditions: cited from earlier work
ATM-deficient mice = assay: Thymic tumor formation and premature degeneration in ATM-deficient mice; format: in vivo; conditions: ATM deficiency
Description: In regulatory gene-dependent syndromes of premature aging, including ataxia telangiectasia, Down syndrome, trichothiodystrophy, Bloom's disease, p53 over-activity (De Boer et al., Science 296: 1276-1281, 2002; Tyner et al., Nature 415: 45-50, 2002), in which life and death of specific cell types are aberrant, appropriate treatments in vitro and in vivo with thiol redox modulators have been partially successful.
Other thiol redox modulators, such as N-acetyl cysteine and dehydrolipoic acid, also delay the premature degeneration of cells and the thymomas. Thiol redox modulators also correct the delayed differentiation and excessive production of DNA in ATM-deficient lymphoid cells (Yan et al., FASEB J. 15: 1132-1138, 2001; Lynn et al., unpublished). However, in the ATM-deficient mice, treatment was fully successful only if the thiol redox modulators were applied early, before two weeks of age and before tumor development.
Whether amino phthalazinediones with other thiol redox modulators, which suppress growth of non-transformed ATM-deficient cells in vitro, can fully suppress tumors in vivo, without toxicity, has not been rigorously evaluated. Cross-linking redox modulators such as diamide, menadione, and oxidized phthalazines are known to stop cell growth, activate caspases, and initiate apoptosis in some tumor cells (Pias and Aw, FASEB J. 16: 781-790, 2002).

| Structure (SMILES) | premature degeneration of cells and the thymomas (ATM-deficient mice) | also measured |
| --- | --- | --- |
| Nc1cccc2c([O-])n[nH]c(=O)c12.[Na+] [4-sodium amino phthalazinedione] |  | progress of the movement disorder with paralysis (MOMU-LV-Ts1 virus): significantly delay |
| CN(C)C(=O)/N=N/C(=O)N(C)C [Diamide] |  | opening of mitochondrial transmembrane pores [1]: completely opens mitochondrial transmembrane pores |
| CC(=O)N[C@@H](CS)C(=O)O [N-acetyl cysteine] | delay |  |
| O=C(O)CCCC[C@@H](S)CCS [dehydrolipoic acid] | delay |  |
